Literature values in patent US20150376254A1, “GAMMA-MSH ANALOGUES” (TXP Pharma GmbH, priority 2014, published 2015).

Legend:
[1] = system: normal human lung fibroblasts (NHLF); settings: TGFβ1-induced NHLF; at higher doses; detailed in U.S. provisional application 61/785,631
MC3r = MC3r (Homo sapiens, UniProt P41968); settings: relative to MC4r; J. Med. Chem. 2005, 48, 1839-1848
MC5r = MC5r (Homo sapiens, UniProt P33032); settings: J. Med. Chem. 2005, 48, 1839-1848
MC5r, sequence (P33032 whole entry): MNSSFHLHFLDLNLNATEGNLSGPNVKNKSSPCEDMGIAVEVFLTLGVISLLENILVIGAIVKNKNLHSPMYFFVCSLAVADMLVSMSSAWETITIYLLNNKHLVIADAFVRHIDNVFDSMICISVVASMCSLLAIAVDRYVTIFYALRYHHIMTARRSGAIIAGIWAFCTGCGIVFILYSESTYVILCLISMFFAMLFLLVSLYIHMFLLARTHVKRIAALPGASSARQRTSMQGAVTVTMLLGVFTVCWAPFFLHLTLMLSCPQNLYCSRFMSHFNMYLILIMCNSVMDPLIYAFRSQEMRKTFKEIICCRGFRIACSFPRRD

MC3r, sequence (P41968 whole entry): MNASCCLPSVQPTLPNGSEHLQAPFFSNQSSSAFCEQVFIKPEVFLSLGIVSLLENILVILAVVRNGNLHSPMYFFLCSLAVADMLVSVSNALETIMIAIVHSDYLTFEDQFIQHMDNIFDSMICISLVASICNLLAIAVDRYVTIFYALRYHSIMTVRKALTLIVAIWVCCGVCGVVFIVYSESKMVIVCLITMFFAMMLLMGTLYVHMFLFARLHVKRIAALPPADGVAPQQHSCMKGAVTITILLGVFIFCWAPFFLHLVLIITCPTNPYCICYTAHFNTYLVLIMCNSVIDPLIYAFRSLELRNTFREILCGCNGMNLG

ACTH: adrenocorticotropic hormone, a melanocortin peptide primarily binding MC2R (SYSMEHFRWGKPVGKKRRPVKVYPNGAEDESAEAFPLEF; Corticotropin; UniProt P01189 138-176, looked up)
ECM collagen [1]: statistically significant reduction

γ-MSH
affinity to the MC3r (MC3r): higher affinity | binding affinity against the MC5r (MC5r): weak
